Legend:
[1] = tested on: primary human fibroblasts; experiment: caspase 3/7 activity apoptosis assay (ApoTox-Glo) in proliferating and quiescent fibroblasts; type: cell-based; conditions: for effect on MG132-induced apoptosis: 2-ME with increasing MG132
Method: Referring to FIG. 2A, primary human fibroblasts were tested either in a proliferating state or after being induced into quiescence. Quiescence may be induced by either contact inhibition or serum starvation. Cells were treated with DHEA for four days, with bafilomycin added on the fourth day. Apoptosis was assessed based on the activity of caspase 3/7 for a fluorogenic substrate.
PPP inhibition and apoptosis analysis: Apoptosis was measured based on the levels of caspase 3/7 released into the media using the ApoTox-Glo Triplex Assay according to the manufacturer's instructions (Promega Corp., Madison, Wis.). Cells were plated in triplicate at 10,000 cells per well in white-walled, clear-bottom 96-well plates (Costar, Corning Life Sciences, Lowell, Mass.). For contact inhibition, cells were plated 7 days prior to the start of treatment, for serum starvation cells were plated 4 days prior to treatment and switched to 0.1% serum media for the remaining 3 days, while proliferating cells were plated the day prior to the start of treatment. […] Cells in serum starvation conditions were incubated in 0.1% serum during treatment as well. The apoptosis reagent was added at 100 μl per well and incubated for 1 h prior to reading. Luminescence was read from the top using a Synergy-2 plate reader (Biotek, Winooski, Vt.). Luminescence data were normalized to the vehicle only condition.
Apoptosis induction was assessed by monitoring caspase 3/7 activity using a luminescent caspase substrate. This assay is optimized for high-throughput screening in 96-well plates and allows multiple concentrations and combination of drugs to be tested in triplicate at different time points. […] Therefore, this assay was used to compare proliferating and serum-starved cells only.

[2] = tested on: skin papillomas and carcinomas; conditions: cited from earlier work; for skin papilloma development: mouse
[3] = tested on: neoplasms, lymphoblastic lymphoma; conditions: p53-deficient mouse; cited from earlier work
[4] = tested on: four day serum starved fibroblasts; experiment: induction of apoptosis in quiescent fibroblasts by DHEA and/or autophagy inhibitor combined with proteasome inhibitors; type: cell-based, human; conditions: proteasome inhibitor alone; four day serum starved fibroblasts
Method: Referring to FIG. 17, the effect of treatment using DHEA and/or an autophagy inhibitor combined with proteasome inhibitors on apoptosis in quiescent cells was analyzed.
In this experiment, the proteasome inhibitor, bortezomib, was used in varying concentrations with DHEA during a 48 hour treatment.

LC3-II = LC3-II immunoblot (autophagy / autophagic flux); type: cell-based, human
Method: (§1) The levels of autophagy components—Atg5/Atg12, Atg7, Atg3, and LC3-I and LC3-II—were monitored in proliferating and contact-inhibited fibroblasts using immunoblotting (FIG. 21A). As a positive control for autophagy induction, samples of cells in each cell cycle state were also incubated in Kreb's Ringer Bicarbonate solution (KRB), a protocol that induces autophagy through amino acid starvation and elimination of other nutrients except glucose. Levels of Atg5/Atg12, Atg7, and LC3-II were elevated in all of the amino acid starvation and contact-inhibition states as compared to the proliferating state (FIG. 21A). Atg3 was induced in all quiescent states compared with proliferating states, including amino acid starvation. In order to differentiate whether the high levels of autophagy proteins resulted from a blockade of autophagy degradation or active flux through the pathway, we monitored the levels of LC3-II in proliferating and 7 dCI fibroblasts in the presence of bafilomycin A1 (Baf-A1). Baf-A1 is a vacuolar-type H^+-ATPase inhibitor that prevents autophagosome fusion with the lysosome due to an increase in lysosomal pH. […] This finding is consistent with active autophagic flux in quiescent fibroblasts
In addition to its role in providing amino acids and energy under starvation conditions, autophagy is involved in maintenance of cellular homeostasis and resistance to tumorigenesis through degradation of old or damaged proteins and entire organelles. It was hypothesized that autophagy in contact-inhibited cells could function to degrade old and/or damaged proteins that would otherwise accumulate in the cytoplasm due to lack of cell division as a mechanism for dilution of these proteins. Oxidation of proteins causes the formation of carbonyl groups on amino acids, and carbonylation can disrupt protein function. To monitor the extent of protein oxidation in proliferating and contact-inhibited fibroblasts, the protein carbonyl groups were derivatized using 2,4-dinitrophenylhydrazine (DNP), and monitored using immunoblotting with an antibody that recognizes the covalently added DNP. The levels of oxidized proteins in proliferating and 7 dCI fibroblasts were monitored in cells that were either competent to perform autophagy (control), or were stably expressing an shRNA against the essential autophagy components Atg5 (sh-Atg5) or Atg7 (sh-Atg7), which are known to represent autophagy-defective phenotypes in other model systems. […] In contact-inhibited fibroblasts, in contrast, the levels of oxidized proteins increased 1.5-fold±0.1 in 7 dCI sh-Atg5 fibroblasts as compared to vector control counterparts (p=0.009) (FIG. 22B). […]
To test this hypothesis, the levels of an autophagy-specific form of the LC3 protein, LC3 II, were monitored compared to a housekeeping protein (Klionsky et al., 2008, “Guidelines for the use and interpretation of assays for monitoring autophagy in higher eukaryotes,” Autophagy 4, 151-175, which is incorporated herein by reference as if fully set forth). […]
We observed an increase in the ratio of LC3 II to GAPDH in response to MG132 treatment for cells in proliferating, contact-inhibited and serum-starved states (FIG. 25B). To test whether the high levels of LC3 II in quiescent cells in response to MG132 treatment result from a blockade of autophagy degradation or from active flux through the pathway, LC3 II levels were monitored in proliferating and quiescent fibroblasts treated with MG132 in the presence or absence of bafilomycin A1 (Baf). […]

p62/SQSTM1 = experiment: p62 immunoblot (autophagic flux); type: cell-based, human; conditions: contact-inhibited (7 dCI) fibroblasts vs proliferating or vehicle/non-treated controls
Method: as §1

breast cancer cell lines = conditions: cited from earlier work
[5] = tested on: proliferating and quiescent fibroblasts; experiment: annexin V / PI flow cytometry after proteasome inhibition; type: cell-based, human; conditions: 24 hours
Method: To elucidate the responses of proliferating and quiescent fibroblasts to proteasome inhibition, the effects of known proteasome inhibitors on proliferating and quiescent fibroblasts were examined.
At the highest dose (10 μM), approximately 50% of proliferating cells were apoptotic (FIG. 24A-lower right (Q4), upper right (Q2), and upper left (Q1) quadrants represent early apoptosis, late apoptosis, and very late apoptosis or necrosis, respectively). In comparison, quiescent fibroblasts were largely unaffected by MG132 treatment, showing far lower levels of apoptosis.

tumor cells = conditions: intraperitoneal injection of tumor cells; cited from earlier work

## COc1cc2c(cc1O)CC[C@@H]1[C@@H]2CC[C@]2(C)[C@@H](O)CC[C@@H]12 [2-ME, 2-methoxyestradiol]
[1]; proliferating fibroblasts
  effect on MG132-induced apoptosis: little effect
[1]; serum-starved fibroblasts
  effect on MG132-induced apoptosis: sensitized

## C[C@]12CCCCC1=CC[C@@H]1[C@@H]2CC[C@]2(C)C(=O)[C@H](F)C[C@@H]12 [16α-fluoro-5-androsten-17-one]
[2]
  skin papilloma development: effective in inhibiting skin papilloma development
[3]
  death due to neoplasms: delay death due to neoplasms

## CC(C)C[C@H](NC(=O)[C@H](Cc1ccccc1)NC(=O)c1cnccn1)B(O)O [bortezomib]
[1]; bortezomib, serum-starved compared to proliferating fibroblasts
  induction of apoptosis (caspase 3/7): relatively low
[4]
  apoptotic induction: did not result in apoptotic induction

## C[C@H]1CC[C@@]2(C)C(=CC[C@@H]3[C@@H]2CC[C@]2(C)C(=O)CC[C@@H]32)C1 [3-β-methylandrost-5-en-17-one]
[2]
  skin papilloma development: inhibits skin papilloma development
[2]; topical 7,12-dimethylbenz(a)anthracene (DMBA), mice
  development of skin papillomas and carcinomas: even more potent chemopreventive effect

## CO/C1=C\C(C)=C\[C@@H](C)[C@@H](O)[C@@H](C)C/C(C)=C/C=C/[C@H](OC)[C@@H]([C@@H](C)[C@@H](O)[C@H](C)[C@@]2(O)C[C@@H](O)[C@H](C)[C@@H](C(C)C)O2)OC1=O [Baf, bafilomycin A1]
[1]; 100 nM Baf, proliferating cells, 24 hours post treatment
  effect on MG132-induced caspase 3/7 activity: slight reduction
[1]; 100 nM Baf, proliferating fibroblasts, 48 hours post treatment
  effect on MG132-induced apoptosis (caspase 3/7): no significant effect
[1]; 100 nM Baf, serum-starved fibroblasts
  effect on MG132-induced apoptosis (caspase 3/7): strongly enhanced
[1]; proliferating fibroblasts, 24 hours post treatment
  effect on bortezomib-induced caspase 3/7 activity: reduced
[1]; proliferating fibroblasts, after 48 hours
  effect on bortezomib-induced caspase 3/7 activity: little effect
[1]; serum-starved fibroblasts, 48 hours, 10 μM MG132
  induction of apoptosis in the presence of Baf vs MG132 alone: more than doubled
LC3-II; Baf combined with MG132, serum-starved cells
  LC3 II to GAPDH ratio vs MG132 alone: did not change
LC3-II; Baf in conjunction with MG132, proliferating and contact-inhibited cells
  LC3 II to GAPDH ratio vs MG132 alone: further increase
LC3-II; Baf-treated proliferating and quiescent cells
  ratio of LC3 II to GAPDH: increase
LC3-II; contact-inhibited (7 dCI) fibroblasts vs proliferating or vehicle/non-treated controls
  levels of LC3-II: further increase
p62/SQSTM1
  levels of p62/SQSTM1: further increase

## FC(F)(F)c1ccc2c(N3CCN(CCCNc4ccnc5cc(Cl)ccc45)CC3)ccnc2c1 [7-chloro-N-(3-(4-(7-trifluoromethyl)quinolin-4-yl)piperazin-1-yl)propyl)quinolin-4-amine]
Breast cancer cell lines
  antiproliferative effects: very effective

## CC[C@H](C)[C@H](NC(=O)[C@H]([C@@H](C)CC)N(C)C(C)=O)C(=O)N[C@H](C(=O)N[C@@H](CC(C)C)C(=O)[C@@]1(C)CO1)[C@@H](C)O [epoxomicin]
[5]; 1 μM
  reduction of viability of proliferating cells: ~50%
[5]; proliferating cells
  proliferating cell viability (fraction PI negative): statistically significant, dose-dependent decrease
[5]; quiescent cells, up to 10 μM MG132, 1 μM epoxomicin
  quiescent cell viability: maintained high viability

## CCN(CCO)CCCC(C)Nc1ccnc2cc(Cl)ccc12 (stereo not drawn) [hydroxychloroquine]
[1]; serum starved fibroblasts, FIG. 2B
  induction of apoptosis: induction of apoptosis

## FC(F)(F)c1ccc2c(NCCCN3CCN(c4ccnc5cc(Cl)ccc45)CC3)ccnc2c1 [{3-[4-(7-chloro-quinolin-4-yl)-piperazin-1-yl]-propyl}-(7-rifluoromethyl-quinolin-4-yl)-amine]
Breast cancer cell lines
  antiproliferative effects: very effective

## Cc1ncc(C[n+]2csc(CCO)c2C)c(=O)[nH]1 [oxythiamine]
Tumor cells
  tumor growth: inhibit tumor growth

## C[C@]12CCCC[C@@H]1CC[C@@H]1[C@@H]2CC[C@]2(C)C(=O)[C@H](F)C[C@@H]12 [16a-fluoro-5a-androstan-17-one]
[2]
  skin papilloma development: effective in inhibiting skin papilloma development

Reference: US20130064815A1, “INDUCING APOPTOSIS IN QUIESCENT CELLS” (THE TRUSTEES OF PRINCETON UNIVERSITY, priority 2011, published 2013)
